According to patent US20120121591A1 (priority 2009, published 2012):

How the values were obtained:
Assay type in all cases: cell-based
hKv1.3 = hKv1.3 (Homo sapiens, UniProt P22001); test: cell-based; details: Kv1.3 (IWQ) IC50 (nM, Avg)
[1] = tested on: IL-2 secretion from T cells in human whole blood; details: read-out: WB (IL-2) IC50 (nM, Avg)
[2] = tested on: IFN-g secretion from T cells in human whole blood; details: read-out: WB (IFNg) IC50 (nM, Avg)

Sequence of hKv1.3 (P22001 whole entry): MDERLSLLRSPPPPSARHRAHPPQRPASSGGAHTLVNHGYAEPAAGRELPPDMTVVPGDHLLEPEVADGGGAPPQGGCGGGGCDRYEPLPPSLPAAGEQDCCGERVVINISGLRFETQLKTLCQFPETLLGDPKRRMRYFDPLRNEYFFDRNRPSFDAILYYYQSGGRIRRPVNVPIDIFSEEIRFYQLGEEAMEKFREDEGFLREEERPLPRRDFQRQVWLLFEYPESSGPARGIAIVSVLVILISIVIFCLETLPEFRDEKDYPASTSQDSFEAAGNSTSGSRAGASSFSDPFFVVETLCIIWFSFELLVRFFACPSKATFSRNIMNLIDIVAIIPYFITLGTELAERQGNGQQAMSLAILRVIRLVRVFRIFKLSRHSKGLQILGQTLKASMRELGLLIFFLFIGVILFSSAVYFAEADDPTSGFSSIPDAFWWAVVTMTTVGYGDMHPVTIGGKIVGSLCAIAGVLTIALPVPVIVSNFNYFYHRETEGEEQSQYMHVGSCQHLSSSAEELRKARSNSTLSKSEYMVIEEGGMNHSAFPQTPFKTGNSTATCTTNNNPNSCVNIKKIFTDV

Compound `CCC[C@@H]1NC(=O)[C@H](CO)NC(=O)[C@H](Cc2c[nH]cn2)NC(=O)[C@H](CCCCN)NC(=O)[C@@H]2CSSC[C@@H]3NC(=O)[C@H]([C@@H](C)O)NC(=O)[C@H](CCCCN)NC(=O)[C@H](CCCNC(=N)N)NC(=O)[C@H](CSSC[C@H](NC(=O)[C@H](CCCNC(=N)N)NC(=O)[C@H](CO)NC(=O)[C@H](CCCCN)NC(=O)[C@@H]4CCCN4C(=O)[C@H]([C@@H](C)CC)NC(=O)[C@H]([C@@H](C)O)NC(=O)[C@H](CC(=O)O)NC(=O)[C@H]([C@@H](C)CC)NC(=O)[C@@H](NC(=O)[C@H](CO)NC(=O)[C@@H](N)CCCNC(=N)N)CSSC[C@@H](C(=O)NCCC(=O)O)NC(=O)[C@H]([C@@H](C)O)NC(=O)CNC3=O)C(=O)N[C@@H]([C@@H](C)O)C(=O)N[C@@H](C)C(=O)N[C@@H](Cc3ccccc3)C(=O)N[C@@H](CCCCN)C(=O)N2)NC(=O)[C@H](Cc2ccccc2)NC(=O)[C@H](CO)NC(=O)[C@H](CC(C)C)NC(=O)[C@H](CCCNC(=N)N)NC(=O)[C@H](Cc2ccc(O)cc2)NC(=O)[C@H](CCCCN)NC1=O` [[Lys16,Nva21]ShK-betaAla] has an IC50 (hKv1.3) of 12.6 nM, an IC50 [1] of 0.304 nM and an IC50 [2] of 0.231 nM.

`CC[C@H](C)[C@@H]1NC(=O)[C@@H](NC(=O)[C@H](CO)NC(=O)[C@@H](N)CCCNC(=N)N)CSSC[C@@H](C(=O)O)NC(=O)[C@H]([C@@H](C)O)NC(=O)CNC(=O)[C@@H]2CSSC[C@@H]3NC(=O)[C@H](CCC(N)=O)NC(=O)[C@H](Cc4ccccc4)NC(=O)[C@H](C)NC(=O)[C@H]([C@@H](C)O)NC(=O)[C@H](CSSC[C@H](NC(=O)[C@H](Cc4ccccc4)NC(=O)[C@H](CO)NC(=O)[C@H](CC(C)C)NC(=O)[C@H](CCCNC(=N)N)NC(=O)[C@H](Cc4ccc(O)cc4)NC(=O)[C@H](CCCCN)NC(=O)[C@H](CCSC)NC(=O)[C@H](CO)NC(=O)[C@H](CCCCN)NC(=O)[C@H](CCCCN)NC3=O)C(=O)N[C@@H](CCCNC(=N)N)C(=O)N[C@@H](CCCCN)C(=O)N[C@@H]([C@@H](C)O)C(=O)N2)NC(=O)[C@H](CCCNC(=N)N)NC(=O)[C@H](CO)NC(=O)[C@H](CCCCN)NC(=O)[C@@H]2CCCN2C(=O)[C@H]([C@@H](C)CC)NC(=O)[C@H]([C@@H](C)O)NC(=O)[C@H](CC(=O)O)NC1=O` [[Lys19]ShK] showed an IC50 (hKv1.3) of 0.189 nM, an IC50 [1] of 0.041 nM and an IC50 [2] of 0.089 nM.

`CC[C@H](C)[C@@H]1NC(=O)[C@@H](NC(=O)[C@H](CO)NC(=O)[C@@H](N)CCCNC(=N)N)CSSC[C@@H](C(=O)O)NC(=O)[C@H]([C@@H](C)O)NC(=O)CNC(=O)[C@@H]2CSSC[C@@H]3NC(=O)[C@H](CCC(N)=O)NC(=O)[C@H](Cc4ccccc4)NC(=O)[C@H](C)NC(=O)[C@H]([C@@H](C)O)NC(=O)[C@H](CSSC[C@H](NC(=O)[C@H](Cc4ccccc4)NC(=O)[C@H](CO)NC(=O)[C@H](CC(C)C)NC(=O)[C@H](CCCNC(=N)N)NC(=O)[C@H](Cc4ccc(O)cc4)NC(=O)[C@H](CCCCN)NC(=O)[C@H](CCSC)NC(=O)[C@H](CCCCN)NC(=O)[C@H](Cc4c[nH]cn4)NC(=O)[C@H](CCCCN)NC3=O)C(=O)N[C@@H](CCCNC(=N)N)C(=O)N[C@@H](CCCCN)C(=O)N[C@@H]([C@@H](C)O)C(=O)N2)NC(=O)[C@H](CCCNC(=N)N)NC(=O)[C@H](CO)NC(=O)[C@H](CCCCN)NC(=O)[C@@H]2CCCN2C(=O)[C@H]([C@@H](C)CC)NC(=O)[C@H]([C@@H](C)O)NC(=O)[C@H](CC(=O)O)NC1=O` [[Lys20]ShK] showed an IC50 (hKv1.3) of 1.33 nM, an IC50 [1] of 0.108 nM and an IC50 [2] of 0.192 nM.

For `CC[C@H](C)[C@@H]1NC(=O)[C@@H](NC(=O)[C@H](CO)NC(=O)[C@@H](N)CCCNC(=N)N)CSSC[C@@H](C(=O)O)NC(=O)[C@H]([C@@H](C)O)NC(=O)CNC(=O)[C@@H]2CSSC[C@@H]3NC(=O)[C@H](CCC(N)=O)NC(=O)[C@H](Cc4ccccc4)NC(=O)[C@H](C)NC(=O)[C@H]([C@@H](C)O)NC(=O)[C@H](CSSC[C@H](NC(=O)[C@H](Cc4ccccc4)NC(=O)[C@H](CO)NC(=O)[C@H](CC(C)C)NC(=O)[C@H](CCCNC(=N)N)NC(=O)[C@H](Cc4ccc(O)cc4)NC(=O)[C@H](CCCCN)NC(=O)[C@H](CCCCN)NC(=O)[C@H](CO)NC(=O)[C@H](Cc4c[nH]cn4)NC(=O)[C@H](CCCCN)NC3=O)C(=O)N[C@@H](CCCNC(=N)N)C(=O)N[C@@H](CCCCN)C(=O)N[C@@H]([C@@H](C)O)C(=O)N2)NC(=O)[C@H](CCCNC(=N)N)NC(=O)[C@H](CO)NC(=O)[C@H](CCCCN)NC(=O)[C@@H]2CCCN2C(=O)[C@H]([C@@H](C)CC)NC(=O)[C@H]([C@@H](C)O)NC(=O)[C@H](CC(=O)O)NC1=O` [[Lys21]ShK], the IC50 (hKv1.3) was 0.822 nM, the IC50 [1] was 3.59 nM and the IC50 [2] was 4.82 nM.

`CC[C@H](C)[C@@H]1NC(=O)[C@@H](NC(=O)[C@H](CO)NC(=O)[C@@H](N)CCCNC(=N)N)CSSC[C@@H](C(=O)O)NC(=O)[C@H]([C@@H](C)O)NC(=O)CNC(=O)[C@@H]2CSSC[C@@H]3NC(=O)[C@H](CCC(N)=O)NC(=O)[C@H](Cc4ccccc4)NC(=O)[C@H](C)NC(=O)[C@H]([C@@H](C)O)NC(=O)[C@H](CSSC[C@H](NC(=O)[C@H](Cc4ccccc4)NC(=O)[C@H](CO)NC(=O)[C@H](CCCCN)NC(=O)[C@H](CCCNC(=N)N)NC(=O)[C@H](Cc4ccc(O)cc4)NC(=O)[C@H](CCCCN)NC(=O)[C@H](CCSC)NC(=O)[C@H](CO)NC(=O)[C@H](Cc4c[nH]cn4)NC(=O)[C@H](CCCCN)NC3=O)C(=O)N[C@@H](CCCNC(=N)N)C(=O)N[C@@H](CCCCN)C(=O)N[C@@H]([C@@H](C)O)C(=O)N2)NC(=O)[C@H](CCCNC(=N)N)NC(=O)[C@H](CO)NC(=O)[C@H](CCCCN)NC(=O)[C@@H]2CCCN2C(=O)[C@H]([C@@H](C)CC)NC(=O)[C@H]([C@@H](C)O)NC(=O)[C@H](CC(=O)O)NC1=O` [[Lys25]ShK] showed an IC50 (hKv1.3) of 0.101 nM, an IC50 [1] of 0.226 nM and an IC50 [2] of 0.366 nM.

For `CC[C@H](C)[C@@H]1NC(=O)[C@@H](NC(=O)[C@H](CO)NC(=O)[C@@H](N)CCCNC(=N)N)CSSC[C@@H](C(=O)O)NC(=O)[C@H]([C@@H](C)O)NC(=O)CNC(=O)[C@@H]2CSSC[C@@H]3NC(=O)[C@H](CCC(N)=O)NC(=O)[C@H](Cc4ccccc4)NC(=O)[C@H](C)NC(=O)[C@H]([C@@H](C)O)NC(=O)[C@H](CSSC[C@H](NC(=O)[C@H](Cc4ccccc4)NC(=O)[C@H](CCCCN)NC(=O)[C@H](CC(C)C)NC(=O)[C@H](CCCNC(=N)N)NC(=O)[C@H](Cc4ccc(O)cc4)NC(=O)[C@H](CCCCN)NC(=O)[C@H](CCSC)NC(=O)[C@H](CO)NC(=O)[C@H](Cc4c[nH]cn4)NC(=O)[C@H](CCCCN)NC3=O)C(=O)N[C@@H](CCCNC(=N)N)C(=O)N[C@@H](CCCCN)C(=O)N[C@@H]([C@@H](C)O)C(=O)N2)NC(=O)[C@H](CCCNC(=N)N)NC(=O)[C@H](CO)NC(=O)[C@H](CCCCN)NC(=O)[C@@H]2CCCN2C(=O)[C@H]([C@@H](C)CC)NC(=O)[C@H]([C@@H](C)O)NC(=O)[C@H](CC(=O)O)NC1=O` [[Lys26]ShK], the IC50 (hKv1.3) was 0.115 nM, the IC50 [1] was 0.273 nM and the IC50 [2] was 0.495 nM.

With `CC[C@H](C)[C@@H]1NC(=O)[C@@H](NC(=O)[C@H](CO)NC(=O)[C@@H](N)CCCNC(=N)N)CSSC[C@@H](C(=O)O)NC(=O)[C@H]([C@@H](C)O)NC(=O)CNC(=O)[C@@H]2CSSC[C@@H]3NC(=O)[C@H](CCC(N)=O)NC(=O)[C@H](Cc4ccccc4)NC(=O)[C@H](C)NC(=O)[C@H]([C@@H](C)O)NC(=O)[C@H](CSSC[C@H](NC(=O)[C@H](CCCCN)NC(=O)[C@H](CO)NC(=O)[C@H](CC(C)C)NC(=O)[C@H](CCCNC(=N)N)NC(=O)[C@H](Cc4ccc(O)cc4)NC(=O)[C@H](CCCCN)NC(=O)[C@H](CCSC)NC(=O)[C@H](CO)NC(=O)[C@H](Cc4c[nH]cn4)NC(=O)[C@H](CCCCN)NC3=O)C(=O)N[C@@H](CCCNC(=N)N)C(=O)N[C@@H](CCCCN)C(=O)N[C@@H]([C@@H](C)O)C(=O)N2)NC(=O)[C@H](CCCNC(=N)N)NC(=O)[C@H](CO)NC(=O)[C@H](CCCCN)NC(=O)[C@@H]2CCCN2C(=O)[C@H]([C@@H](C)CC)NC(=O)[C@H]([C@@H](C)O)NC(=O)[C@H](CC(=O)O)NC1=O` [[Lys27]ShK] the IC50 (hKv1.3) was 0.928 nM, the IC50 [1] was 3.48 nM and the IC50 [2] was 11.8 nM.

In the case of `CC[C@H](C)[C@@H]1NC(=O)[C@@H](NC(=O)[C@H](CO)NC(=O)[C@@H](N)CCCNC(=N)N)CSSC[C@@H](C(=O)O)NC(=O)[C@H]([C@@H](C)O)NC(=O)CNC(=O)[C@@H]2CSSC[C@@H]3NC(=O)[C@H](CCC(N)=O)NC(=O)[C@H](Cc4ccccc4)NC(=O)[C@H](C)NC(=O)[C@H]([C@@H](C)O)NC(=O)[C@H](CSSC[C@H](NC(=O)[C@H](Cc4ccccc4)NC(=O)[C@H](CO)NC(=O)[C@H](CC(C)C)NC(=O)[C@H](CCCNC(=N)N)NC(=O)[C@H](Cc4ccc(O)cc4)NC(=O)[C@H](CCCCN)NC(=O)[C@H](CCSC)NC(=O)[C@H](CO)NC(=O)[C@H](Cc4c[nH]cn4)NC(=O)[C@H](CCCCN)NC3=O)C(=O)N[C@@H](CCCCN)C(=O)N[C@@H](CCCCN)C(=O)N[C@@H]([C@@H](C)O)C(=O)N2)NC(=O)[C@H](CCCNC(=N)N)NC(=O)[C@H](CO)NC(=O)[C@H](CCCCN)NC(=O)[C@@H]2CCCN2C(=O)[C@H]([C@@H](C)CC)NC(=O)[C@H]([C@@H](C)O)NC(=O)[C@H](CC(=O)O)NC1=O` [[Lys29]ShK], the IC50 (hKv1.3) is reported as 0.158 nM, the IC50 [1] is reported as 0.04 nM and the IC50 [2] is reported as 0.071 nM.

For `CC[C@H](C)[C@@H]1NC(=O)[C@@H](NC(=O)[C@H](CO)NC(=O)[C@@H](N)CCCNC(=N)N)CSSC[C@@H](C(=O)O)NC(=O)[C@H]([C@@H](C)O)NC(=O)CNC(=O)[C@@H]2CSSC[C@@H]3NC(=O)[C@H](CCC(N)=O)NC(=O)[C@H](Cc4ccccc4)NC(=O)[C@H](C)NC(=O)[C@H]([C@@H](C)O)NC(=O)[C@H](CSSC[C@H](NC(=O)[C@H](Cc4ccccc4)NC(=O)[C@H](CO)NC(=O)[C@H](CC(C)C)NC(=O)[C@H](CCCNC(=N)N)NC(=O)[C@H](Cc4ccc(O)cc4)NC(=O)[C@H](CCCCN)NC(=O)[C@H](CCSC)NC(=O)[C@H](CO)NC(=O)[C@H](Cc4c[nH]cn4)NC(=O)[C@H](CCCCN)NC3=O)C(=O)N[C@@H](CCCNC(=N)N)C(=O)N[C@@H](CCCCN)C(=O)N[C@@H](CCCCN)C(=O)N2)NC(=O)[C@H](CCCNC(=N)N)NC(=O)[C@H](CO)NC(=O)[C@H](CCCCN)NC(=O)[C@@H]2CCCN2C(=O)[C@H]([C@@H](C)CC)NC(=O)[C@H]([C@@H](C)O)NC(=O)[C@H](CC(=O)O)NC1=O` [[Lys31]ShK], the IC50 (hKv1.3) was 1.42 nM, the IC50 [1] was 5.98 nM and the IC50 [2] was 27.9 nM.
